{
  "source": "ChEMBL document CHEMBL1287698",
  "about": "“Artemisinin-quinoline hybrid-dimers: synthesis and in vitro antiplasmodial activity” (Bioorg Med Chem Lett, 2010)",
  "key": {"[1]": {"test": "Selectivity index, ratio of IC50 for CHO cells to IC50 of chloroquine-sensitive Plasmodium falciparum D10", "type": "toxicity, cell-based", "conditions": "hamster, read-out: Ratio IC50"}, "[2]": {"test_system": "Plasmodium falciparum", "test": "Antiplasmodial activity against chloroquine-resistant Plasmodium falciparum Dd2", "type": "functional, organism-based"}, "[3]": {"test_system": "Plasmodium falciparum", "test": "Resistance index, ratio of IC50 for chloroquine-resistant Plasmodium falciparum Dd2 to IC50 for chloroquine-sensitive Plasmodium falciparum D10", "type": "functional"}, "[4]": {"test_system": "Plasmodium falciparum", "test": "Antiplasmodial activity against chloroquine-sensitive Plasmodium falciparum D10", "type": "functional, organism-based"}, "[5]": {"test_system": "CHO", "test": "Cytotoxicity against CHO cells by MTT assay", "type": "cell-based", "conditions": "Cricetulus griseus"}},
  "data": [
    {"smiles": "C[C@H]1[C@@H](OCCN(CCNc2ccnc3cc(Cl)ccc23)CCO[C@H]2O[C@@H]3O[C@]4(C)CC[C@H]5[C@H](C)CC[C@@H]([C@H]2C)[C@@]35OO4)O[C@@H]2O[C@]3(C)CC[C@H]4[C@H](C)CC[C@@H]1[C@@]24OO3", "values": [
      {"measurement": "selectivity ratio", "setting": "[1]", "value": 1360},
      {"measurement": "IC50", "setting": "[2]", "value": 46.1, "unit": "nM"},
      {"measurement": "Ratio IC50", "setting": "[3]", "value": 6},
      {"measurement": "IC50", "setting": "[4]", "value": 7.37, "unit": "nM"},
      {"measurement": "IC50", "setting": "[5]", "value": 10, "unit": "nM"}
    ]},
    {"smiles": "C[C@H]1[C@@H](OCCN(CCCNc2ccnc3cc(Cl)ccc23)CCO[C@H]2O[C@@H]3O[C@]4(C)CC[C@H]5[C@H](C)CC[C@@H]([C@H]2C)[C@@]35OO4)O[C@@H]2O[C@]3(C)CC[C@H]4[C@H](C)CC[C@@H]1[C@@]24OO3", "values": [
      {"measurement": "selectivity ratio", "setting": "[1]", "value": 128},
      {"measurement": "IC50", "setting": "[2]", "value": 28.4, "unit": "nM"},
      {"measurement": "Ratio IC50", "setting": "[3]", "value": 5},
      {"measurement": "IC50", "setting": "[4]", "value": 5.31, "unit": "nM"},
      {"measurement": "IC50", "setting": "[5]", "value": 0.68, "unit": "nM"}
    ]},
    {"smiles": "C[C@H]1[C@@H](OCCN(CCCCNc2ccnc3cc(Cl)ccc23)CCO[C@H]2O[C@@H]3O[C@]4(C)CC[C@H]5[C@H](C)CC[C@@H]([C@H]2C)[C@@]35OO4)O[C@@H]2O[C@]3(C)CC[C@H]4[C@H](C)CC[C@@H]1[C@@]24OO3", "values": [
      {"measurement": "selectivity ratio", "setting": "[1]", "value": 61},
      {"measurement": "IC50", "setting": "[2]", "value": 205, "unit": "nM"},
      {"measurement": "Ratio IC50", "setting": "[3]", "value": 2},
      {"measurement": "IC50", "setting": "[4]", "value": 89, "unit": "nM"},
      {"measurement": "IC50", "setting": "[5]", "value": 5.43, "unit": "nM"}
    ]},
    {"smiles": "C[C@H]1[C@@H](O[N+]2(CCO[C@H]3O[C@H]4O[C@]5(C)CC[C@H]6[C@H](C)CC[C@@H]([C@H]3C)[C@@]46OO5)CCN(CCNc3ccnc4cc(Cl)ccc34)CC2)O[C@@H]2O[C@]3(C)CC[C@H]4[C@H](C)CC[C@@H]1[C@@]24OO3.[Br-]", "values": [
      {"measurement": "selectivity ratio", "setting": "[1]", "value": 3810},
      {"measurement": "IC50", "setting": "[2]", "value": 55.7, "unit": "nM"},
      {"measurement": "Ratio IC50", "setting": "[3]", "value": 3},
      {"measurement": "IC50", "setting": "[4]", "value": 19.6, "unit": "nM"},
      {"measurement": "IC50", "setting": "[5]", "value": 74.8, "unit": "nM"}
    ]},
    {"smiles": "C[C@H]1[C@@H](O)O[C@@H]2O[C@@]3(C)CC[C@H]4[C@H](C)CC[C@@H]1[C@@]24OO3", "note": "[ARTENIMOL]", "values": [
      {"measurement": "IC50", "setting": "[2]", "value": 2.09, "unit": "nM"},
      {"measurement": "IC50", "setting": "[4]", "value": 5.11, "unit": "nM"}
    ]},
    {"smiles": "CC[C@H]1CN2CCc3cc(OC)c(OC)cc3[C@@H]2C[C@@H]1C[C@H]1NCCc2cc(OC)c(OC)cc21", "note": "[EMETINE]", "values": [
      {"measurement": "Ratio IC50", "setting": "[3]", "value": 0.4}
    ]}
  ]
}
